One experiment concerns the target acetyl choline esterase (Homo sapiens, UniProt P22303). To be noted: in vitro; cited from earlier work.
The test system of experiment [1] is mice subjected to a closed head injury (CHI). In words: Y maze spatial memory test after CHI. In kind it is in vivo. The conditions noted are these: 24 days after trauma; oral gavage, 9 daily doses; Pg oil 100 mg/kg, citronellol 25 mg/kg, citronellyl formate 80 mg/kg. As for the experimental part:
(§1) Experimental CHI was induced by using a modified weight drop device (Chen et al; Flierl et al). Briefly, under 3% isoflurane anesthesia and supplementary oxygen (confirmed by the loss of response to pinch of paw), a midline longitudinal incision is performed, and the skull is exposed. A Teflon tipped cone (2 mm diameter) is placed upside down 2 mm lateral to the midline and 2 mm posterior to the bregma in the mid-coronal plane. The head is held in place and a 95 g weight is allowed to free-fall on the cone from a pre-established height, resulting in focal injury to the left hemisphere. The height of the free-fall weight is determined by the weight of the mouse and the desired CHI severity. […] At 1 h after CHI, the NSS is evaluated. […] Animals displaying apnea were monitored carefully and returned to their cage when adequate oxygenation was restored. • a. […]
At 24 days post CHI, the Y maze spatial memory test was preformed to evaluate short term spatial memory. […] Short-term memory is reflected by the Preference index (PI), calculated as the amount of time spent in the new arm relative to the total amount of time spent in the “other” plus “new” arms. […]
The data was further analyzed by dividing the mice's performance into two groups: mice with (+) positive y-axis values (which represent a good spatial memory) and mice with negative (−) y-axis values (which represent spatial memory loss).

For experiment [2] the test system is unchanged. As to the kind of experiment: Barnes maze test (learning) after CHI. In kind it is in vivo. The conditions noted are these: acquisition days 1-4, two weeks after CHI; oral gavage, 9 daily doses; Pg oil 100 mg/kg, citronellol 25 mg/kg, citronellyl formate 80 mg/kg. Here is the method:
as §1, with “severity. In the present experiments, a free-fall of 6.5-7 cm was selected to induce a moderate neurological severity injury (NSS of 6-7 at 1 hr post injury). Sham mice were anesthetized and subjected to the same skin incision as described above, with no further trauma.” for “severity.”
The BM test is based on the instinct of the mouse to hide when exposed to environmental disturbances and is used to test spatial learning and memory. […] For the probe trial, the latency to reaching the escape box first is recorded. […]

Experiment [3] has the same test system. As to the kind of experiment: Neurological Severity Score (NSS) after closed head injury. In kind it is in vivo. The conditions noted are these: oral gavage, 9 daily doses over 2 weeks starting 24 h after CHI; Pg oil 100 mg/kg, citronellol 25 mg/kg, citronellyl formate 80 mg/kg; from day 7 up to 30 days after trauma. Here is the method: as §1, with “severity. In the present experiments, a free-fall of 6.5-7 cm was selected to induce a moderate neurological severity injury (NSS of 6-7 at 1 hr post injury).” for “severity.”
The functional status of the mice was evaluated according to the neurobehavioral score, known as the Neurological Severity Score (NSS), which consists of several tests that assess reflexes, alertness, coordination, and motor abilities. […]
The neurological severity score (NSS) was determined for each of the experimental groups of mice (details as described above) starting 1 hour after the trauma.

Experiment [4] has the same test system. In words: Novel Object Recognition (NOR) test after CHI. In kind it is in vivo. The conditions noted are these: 22 days after trauma; 4 hours after object replaced; oral gavage, 9 daily doses; Pg oil 100 mg/kg, citronellol 25 mg/kg, citronellyl formate 80 mg/kg. Here is the method: as §1
The novel object recognition (NOR test) was performed to assess short term memory 22d after trauma. […] The cumulative time spent by each mouse exploring the objects was recorded manually for a total of 5 min. […] Exploration of the object was determined as such when the mouse's nose was pointed in the direction of the object and the mouse was actively investigating it, directly touching it or being close to it. […] The time spent exploring each of the objects (novel or familiar) was recorded and calculated as the percentage of time from a total of 5 min. […]

Structures are written as SMILES. Structures can show the parent of a compound that is named as a salt.

Chain of acetyl choline esterase (P22303 32-614): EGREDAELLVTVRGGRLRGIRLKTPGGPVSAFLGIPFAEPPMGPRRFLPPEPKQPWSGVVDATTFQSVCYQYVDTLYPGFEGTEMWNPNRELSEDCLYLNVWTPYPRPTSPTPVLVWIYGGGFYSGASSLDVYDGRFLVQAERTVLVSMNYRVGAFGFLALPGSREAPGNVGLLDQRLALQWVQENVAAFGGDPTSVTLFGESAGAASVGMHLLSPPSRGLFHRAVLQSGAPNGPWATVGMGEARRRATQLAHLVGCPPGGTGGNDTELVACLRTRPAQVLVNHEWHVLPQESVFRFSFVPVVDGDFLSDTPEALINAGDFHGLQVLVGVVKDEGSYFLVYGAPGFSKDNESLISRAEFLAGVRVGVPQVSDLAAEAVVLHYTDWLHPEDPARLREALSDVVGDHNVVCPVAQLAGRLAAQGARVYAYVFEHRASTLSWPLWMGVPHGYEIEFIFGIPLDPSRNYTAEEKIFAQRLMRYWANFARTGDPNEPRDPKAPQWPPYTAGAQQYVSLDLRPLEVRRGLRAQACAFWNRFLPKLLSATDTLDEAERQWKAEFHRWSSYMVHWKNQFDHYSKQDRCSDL

In the case of `CC(C)=CCC[C@H](C)CCO` [(S) (−) citronellol], at acetyl choline esterase, the “inhibition of acetyl choline esterase activity” value is given as “inhibits in vitro the activity of the enzyme acetyl choline esterase”.
Consider `CC(C)=CCCC(C)CCOC=O` (stereo not drawn) [citronellyl formate], for which the “percent of mice that preferred the novel arm over the familiar arm (Y maze)” value in experiment [1] was “About 54%”. In experiment [2], the “Barnes maze learning performance (latency to escape box)” value was “significant improvement, but only on day 2”. The “reduction in the neurological severity score (NSS) compared with vehicle treated CHI mice” value in experiment [3] was “significant reduction”. Also, in experiment [4], the “preference/recognition of a novel object versus a familiar one (NOR)” value is on record as “not able to prefer/recognize a novel object”.
Consider `CC(C)=CCCC(C)CCO` (stereo not drawn) [citronellol], for which the “percent of mice that preferred the novel arm over the familiar arm (Y maze)” value in experiment [1] was “About 54%”. Moreover, the “Barnes maze learning performance (latency to escape box)” value in experiment [2] is on record as “significant improvement, but only on day 2”. Further, the “reduction in the neurological severity score (NSS) compared with vehicle treated CHI mice” value in experiment [3] is “significant reduction”. In addition, in experiment [4], the “preference/recognition of a novel object versus a familiar one (NOR)” value is reported as “not able to prefer/recognize a novel object”.

Values taken from US20260224652A1, “ENRICHED PELARGONIUM GRAVEOLENS EXTRACTS FOR THE TREATMENT OF TRAUMATIC BRAIN INJURIES” (THE STATE OF ISRAEL, MINISTRY OF AGRICULTURE & RURAL …, priority 2023, published 2026).
